Measurements from patent publication US20250170176A1, “METHODS OF TREATMENT WITH CAR CELLS IN COMBINATION WITH S1P RECEPTOR MODULATORS” (PRIOTHERA SAS, priority 2022, published 2025).

Experiments:
[1] = tested on: absolute lymphocyte counts; details: healthy volunteers; multiple dose applications for 28 days; cited from earlier work
CAR-T cells [2] = experiment: Absolute numbers of CAR-T cells in blood (Example 3); type: in vivo, mouse (NCG); details: mocravimod with CAR-T cells
Experimental: (§1) To determine the kinetics of cytokine secretion and to evaluate the effectiveness of mocravimod in reducing the level of circulating cytokines when administered in combination with CAR T cells, NOD CRISPR Prkdc 112r Gamma (NCG) mice were injected i.v. with 5×10^6 JEKO-1-luc-GFP tumor cells. Treatment with either mocravimod or vehicle started on day 6 after tumor cell engraftment. Mocravimod (3 mg/kg) was administered every second day. 0.75×10^6 CAR T cells were injected i.v. on day 7 after tumor cell engraftment. Mice were bled 24 h, 48 h, 72 h, 96 h and 120 h post CAR T cell injection and plasma was collected. Interferon-g (IFN-g), Tumor necrosis factor-a (TNF-α) and Interleukin-2 (IL-2) were analyzed in plasma samples using the BD CBA Human Th1/Th2/Th17 cytokine assay. CAR T cells were phenotyped and enumerated in blood.
The same protocol as example 1 has been conducted for the method of analyzing CAR-T cells in bone marrow and the same protocol as the cytokine assay has been conducted for the method of analyzing CAR-T cells in blood.

CAR-T cells [3] = experiment: CAR-T cell activation markers by flow cytometry in leukemia mice (Example 1); type: in vivo, mouse (C57BL/6J); details: KRP203 administered from day −1
Description: 6 to 8-week-old C57BL/6J male mice were obtained from Envigo. Ubi-GFP RAG1−/−OT-I TCR mice were bred and crossed in our animal facility under specific pathogen-free conditions. All experiments were approved by Institut Pasteur's Safety Committee in accordance with French and European guidelines (CETEA 2017-0038). Immortalized pro-B cells were generated by infecting bone marrow cells with a retrovirus encoding viral-Abelson kinase (v-abl). This tumor cell line was then retrovirally transduced to express a fluorescence resonance energy transfer (FRET)-based reporter for caspase 3 activity. Mice were examined every day and sacrificed in case of prostration, tousled hair, weakness or nodal tumor mass >1 cm. Cells were cultured in RPMI medium 1640-GlutaMAX™ supplemented with 10% heat-inactivated fetal bovine serum, 50 U·mL-1 penicillin, 50 μg·mL-1 streptomycin, 1 mM sodium pyruvate, 10 mM HEPES and 50 μM 2-mercaptoethanol, and maintained at 37° C. and 5% CO2. Cells were routinely tested for the absence of Mycoplasma contamination (Venor-GeM Advance mycoplasma detection kit, Minerva Biolabs). […]
For ex vivo analysis, bone marrow cells were isolated by flushing femurs and tibias from tumor-bearing mice and subsequent filtering through 70 μm cell strainers. […] Analyses were performed using a Cytoflex LX (Beckman Coulter) flow cytometer and analyzed with FlowJo v10.8.0 (BD). […]

IFN-g, TNF-α and IL-2 = experiment: Kinetics of plasma cytokines (BD CBA Human Th1/Th2/Th17) in JEKO-1 bearing NCG mice given CAR T cells (Example 3); type: in vivo, mouse (NCG); details: 5 days after CAR-T cells; mocravimod 3 mg/kg every second day from day 6
Experimental: as §1

SMILES	Recovery of absolute lymphocyte counts to 80% of normal counts reached after [1]	absolute number of CAR-T cells in blood (CAR-T cells [2]; day 1 after CAR-T injection)	absolute number of CAR-T cells in blood (CAR-T cells [2]; day 3 after CAR-T injection)	absolute number of CAR-T cells in blood (CAR-T cells [2]; day 5 after CAR-T injection)	percentage of activation of CAR-T cells in lymph nodes, increase in comparison to the control (CAR-T cells [3])	level of IFN-g in blood (plasma) (IFN-g, TNF-α and IL-2)	level of IL-2 in blood (plasma) (IFN-g, TNF-α and IL-2)	level of TNFa in blood (plasma) (IFN-g, TNF-α and IL-2)
CCc1cc(/C(C)=N/OCc2ccc(C3CCCCC3)c(C(F)(F)F)c2)ccc1CN1CC(C(=O)O)C1 [BAF312]	7 days							
NC(CO)(CO)CCc1ccc(Sc2cccc(OCc3ccccc3)c2)cc1Cl [mocravimod, 2-amino-2-[4-(3-benzyloxyphenylthio)-2-chlorophenyl]ethyl-propane-1,3-diol]		around 500	around 500	around 100	2-3 times	around 100 μg/mL	around 2 μg/mL	around 0 μg/mL
